Data published in ChEMBL document CHEMBL4483862, “Open-source discovery of chemical leads for next-generation chemoprotective antimalarials” (2018).

System: Plasmodium berghei
Experiment: Luciferase/luciferin-expressing antifolate-resistant parasites were used to infect a culture of HepG2 cells that were pre-incubated with compounds. Infected hepatocytes emit light due to the luciferase reaction. Assay results are presented as the percent inhibition of light emission compared to control. […]
Assay type: functional
Conditions: sporozoite; for IC90: read-out: LUCIFERASE INFECTION ASSAY - IC90
[1] = read-out: LUCIFERASE INFECTION ASSAY - IC50

Row | SMILES | IC90 [µM] | also measured
1 | CCCn1c(NC(=O)c2oc3ccccc3c2COCC)nc2ccccc21 | > 10 | IC50 (PBLUC_HILL_SLOPE 8.76, PBLUC_R_SQUARED 0.513, read-out: LUCIFERASE INFECTION ASSAY - IC50): 8.84 µM
2 | COc1cc(-c2cc(NCc3cccc(C(F)(F)F)c3)ncn2)cc(OC)c1OC | > 7.87 | IC50 (FFLUC_HILL_SLOPE 0.883, FFLUC_R_SQUARED 0.362, PBLUC_HILL_SLOPE 0.944, PBLUC_R_SQUARED 0.459, read-out: LUCIFERASE INFECTION ASSAY - IC50): 0.859 µM
3 | O=C(Nc1ccc(-c2nc3ccccc3[nH]2)cc1)c1ccc(NC(=O)C2CC2)s1 | 0.674 | IC50 (HEPG2TOX_HILL_SLOPE 1.89, HEPG2TOX_R_SQUARED 0.991, PBLUC_HILL_SLOPE 4.29, PBLUC_R_SQUARED 0.909, read-out: LUCIFERASE INFECTION ASSAY - IC50): 0.404 µM
4 | CC(C)(C)C1=CSC(=C2Sc3ccccc3C2=O)N1 | > 11.4 | IC50 (FFLUC_HILL_SLOPE 1.22, FFLUC_R_SQUARED 0.112, read-out: LUCIFERASE INFECTION ASSAY - IC50): > 11.4 µM
5 | COc1cccc(Cn2nc(C(=O)NC3CC3)c3c2CCN(Cc2cc4c(cc2Cl)OCO4)C3)c1 | > 6.67 | IC50 (PBLUC_HILL_SLOPE 2.62, PBLUC_R_SQUARED 0.537, read-out: LUCIFERASE INFECTION ASSAY - IC50): 3.5 µM
6 | COc1ccc(Cl)cc1C(=O)NNC(=O)c1oc2ccccc2c1CSC1CCCCC1 | > 10 | IC50 (FFLUC_HILL_SLOPE 11.7, FFLUC_R_SQUARED 0.493, read-out: LUCIFERASE INFECTION ASSAY - IC50): > 10 µM
7 | CC(C)(C)OC(=O)Nc1ccc(C(=O)NCC2(c3ccccc3)CC2)cc1 | > 10 | IC50 [1]: > 10 µM
8 | Cc1ccc(-n2c(C)cc(C(=O)CNCc3ccccc3)c2C)cc1 | > 10 | IC50 (PBLUC_HILL_SLOPE 3.04, PBLUC_R_SQUARED 0.101, read-out: LUCIFERASE INFECTION ASSAY - IC50): 9.63 µM
9 | Nc1ncc(-c2cccc(OC(F)(F)F)c2)cc1-c1cccnc1 | > 9.96 | IC50 (HEPG2TOX_HILL_SLOPE 1.26, HEPG2TOX_R_SQUARED 0.924, PBLUC_HILL_SLOPE 2.1, PBLUC_R_SQUARED 0.295, read-out: LUCIFERASE INFECTION ASSAY - IC50): 5.18 µM
10 | CC(Sc1nc(=O)c2c3c(sc2[nH]1)CCCC3)C(=O)Nc1ccc2ccccc2c1 (configuration not stated) | > 10 | IC50 (HEPG2TOX_HILL_SLOPE 0.165, HEPG2TOX_R_SQUARED 0.248, read-out: LUCIFERASE INFECTION ASSAY - IC50): > 10 µM
11 | CC(C)c1ccc(NC(=O)c2ccc(N(C)C)c([N+](=O)[O-])c2)cc1 | 8.31 | IC50 (PBLUC_HILL_SLOPE 3.41, PBLUC_R_SQUARED 0.504, read-out: LUCIFERASE INFECTION ASSAY - IC50): 4.36 µM
12 | Cc1nn(-c2ccc(F)cc2)c2ncc(C(=O)Nc3nc(C4CC4)cs3)cc12 | 4.45 | IC50 (PBLUC_HILL_SLOPE 2.65, PBLUC_R_SQUARED 0.58, read-out: LUCIFERASE INFECTION ASSAY - IC50): 1.94 µM
13 | Cc1c(-c2ccccc2)sc2ncnc(NCC(=O)N3CCCC3)c12 | > 10 | IC50 (PBLUC_HILL_SLOPE 2.95, PBLUC_R_SQUARED 0.129, read-out: LUCIFERASE INFECTION ASSAY - IC50): 5.82 µM
14 | Cc1nc(N/N=C/c2ccc(O)cc2)c2cnn(-c3ccccc3)c2n1 | > 10 | IC50 [1]: > 10 µM
15 | c1ccc(Oc2cccc(-c3ccc4ncc(-c5ccoc5)n4n3)c2)cc1 | > 10 | IC50 [1]: > 10 µM
16 | CN(C)c1nc(N)nc(/C(C#N)=C/c2ccc(N(c3ccccc3)c3ccccc3)cc2)n1 | > 10 | IC50 (PBLUC_HILL_SLOPE 2.12, PBLUC_R_SQUARED 0.0159, read-out: LUCIFERASE INFECTION ASSAY - IC50): 7.93 µM
17 | Cc1nnc(-c2cccc(NC(=O)c3ccc4c(c3)CCO4)c2)[nH]1 | > 10 | IC50 [1]: > 10 µM
18 | CCOc1ccc(-c2nc(CSC(C)C(=O)Nc3c(Cl)cccc3Cl)cs2)cc1 (configuration not stated) | > 10 | IC50 [1]: > 10 µM
19 | CC(C)(C)C(=O)Nc1ccc(-c2csc(-n3nccc3C(F)(F)F)n2)cc1 | > 10 | IC50 (PBLUC_HILL_SLOPE 6.43, PBLUC_R_SQUARED 0.126, read-out: LUCIFERASE INFECTION ASSAY - IC50): 8.51 µM
20 | CCC(C)NC(=O)c1c(NC(=O)c2cccc(C)c2)nc2ccc(C)cn12 (configuration not stated) | 6.6 | IC50 (HEPG2TOX_HILL_SLOPE 8.22, HEPG2TOX_R_SQUARED 0.0887, PBLUC_HILL_SLOPE 4.24, PBLUC_R_SQUARED 0.444, read-out: LUCIFERASE INFECTION ASSAY - IC50): 3.93 µM
21 | Cc1cccc(-c2nn(-c3ccccc3)cc2/C=C2\CCn3c2nc2cc(Cl)ccc2c3=O)c1 | > 10 | IC50 (FFLUC_HILL_SLOPE 2.22, FFLUC_R_SQUARED 0.239, read-out: LUCIFERASE INFECTION ASSAY - IC50): > 10 µM

Row | SMILES | IC90 [µM] | also measured
22 | CC(C)Oc1cccc(Nc2nccc3[nH]c(-c4ccccc4)cc23)c1 | 7.93 | IC50 (HEPG2TOX_HILL_SLOPE 8.91, HEPG2TOX_R_SQUARED 0.686, PBLUC_HILL_SLOPE 1.92, PBLUC_R_SQUARED 0.493, read-out: LUCIFERASE INFECTION ASSAY - IC50): 2.53 µM
23 | Cc1c(-c2cc(-c3ccc(Cl)cc3)nc3ccccc23)oc2ccc(F)cc2c1=O | > 10 | IC50 [1]: > 10 µM
24 | CC(C)(C)CC(=O)Nc1ccc(-c2nc3ccccc3[nH]2)cc1 | 6 | IC50 (HEPG2TOX_HILL_SLOPE 7.93, HEPG2TOX_R_SQUARED 0.604, PBLUC_HILL_SLOPE 0.372, PBLUC_R_SQUARED 0.913, read-out: LUCIFERASE INFECTION ASSAY - IC50): 0.0164 µM
25 | N#CC(C(=O)c1cc(S(=O)(=O)N2CCc3ccccc3C2)ccc1Cl)c1ccccn1 (configuration not stated) | 3.76 | IC50 (PBLUC_HILL_SLOPE 17.6, PBLUC_R_SQUARED 0.387, read-out: LUCIFERASE INFECTION ASSAY - IC50): 3.32 µM
26 | COCCN1COc2c(cc(Cl)c3cccnc23)C1 | 5.37 | IC50 (HEPG2TOX_HILL_SLOPE 3.55, HEPG2TOX_R_SQUARED 0.927, PBLUC_HILL_SLOPE 12, PBLUC_R_SQUARED 0.223, read-out: LUCIFERASE INFECTION ASSAY - IC50): 4.47 µM
27 | CCSc1ncc(-c2nnnn2-c2ccccc2)c(-c2ccccc2)n1 | > 9.16 | IC50 (FFLUC_HILL_SLOPE 12.6, FFLUC_R_SQUARED 0.17, read-out: LUCIFERASE INFECTION ASSAY - IC50): > 9.16 µM
28 | O=C(Cn1cnc2scc(-c3ccccc3)c2c1=O)Nc1ccc([N+](=O)[O-])cc1 | > 10 | IC50 [1]: > 10 µM
29 | CS(=O)(=O)c1ccc(N2CCN(c3ccnc4cc(Cl)ccc34)CC2)c([N+](=O)[O-])c1 | 8.81 | IC50 (HEPG2TOX_HILL_SLOPE 8.04, HEPG2TOX_R_SQUARED 0.676, PBLUC_HILL_SLOPE 3.39, PBLUC_R_SQUARED 0.378, read-out: LUCIFERASE INFECTION ASSAY - IC50): 4.61 µM
30 | N#Cc1cc(NC(=O)c2cccc(Cl)c2)ccc1Sc1cccc(C(F)(F)F)c1 | > 7.62 | IC50 [1]: > 7.62 µM
31 | CCOc1ccc(-n2c(SCC(=O)Nc3cc(C(C)(C)C)nn3-c3ccccc3)nc3ccccc32)cc1 | > 10 | IC50 (FFLUC_HILL_SLOPE 35.3, FFLUC_R_SQUARED 0.234, PBLUC_HILL_SLOPE 11.6, PBLUC_R_SQUARED 0.616, read-out: LUCIFERASE INFECTION ASSAY - IC50): 8.73 µM
32 | COC(=O)c1c(-c2cccs2)csc1NC(=O)CSc1cc(C)c2ccccc2n1 | > 10 | IC50 [1]: > 10 µM
33 | CCn1cc(C(=O)OC)c(=O)c2cc(C(F)(F)F)ccc21 | > 11 | IC50 (PBLUC_HILL_SLOPE 2.56, PBLUC_R_SQUARED 0.477, read-out: LUCIFERASE INFECTION ASSAY - IC50): 5.72 µM
34 | O=C(Nc1ccc(SC(F)(F)F)cc1)Nc1ccc(SC(F)(F)F)cc1 | 0.867 | IC50 (HEPG2TOX_HILL_SLOPE 1.44, HEPG2TOX_R_SQUARED 0.886, PBLUC_HILL_SLOPE 1.62, PBLUC_R_SQUARED 0.668, read-out: LUCIFERASE INFECTION ASSAY - IC50): 0.223 µM
35 | COc1cncc(-c2cc(Nc3ccc(Oc4ccccc4)cc3)ncn2)c1 | > 8.91 | IC50 (PBLUC_HILL_SLOPE 10.3, PBLUC_R_SQUARED 0.501, read-out: LUCIFERASE INFECTION ASSAY - IC50): 7.76 µM
36 | CNc1nc(-c2cccnc2)nc2sc(-c3ccccc3)cc12 | > 10 | IC50 (PBLUC_HILL_SLOPE 3.26, PBLUC_R_SQUARED 0.654, read-out: LUCIFERASE INFECTION ASSAY - IC50): 6.22 µM
37 | COc1ccc(/C=C(/C(=O)Nc2ccc(Cl)cc2)c2nc3ccccc3s2)cc1O | 4.29 | IC50 (HEPG2TOX_HILL_SLOPE 8.13, HEPG2TOX_R_SQUARED 0.744, PBLUC_HILL_SLOPE 10.1, PBLUC_R_SQUARED 0.615, read-out: LUCIFERASE INFECTION ASSAY - IC50): 3.45 µM
38 | O=C(NCCO)c1ccc(-c2cn3c(-c4ccc(Oc5ccccc5)cc4)cnc3cn2)cc1 | > 7.33 | IC50 [1]: > 7.33 µM
39 | O=[N+]([O-])c1cc2c(cc1C(O)c1nnc(-c3ccccc3)o1)OCO2 (configuration not stated) | 8.01 | IC50 [1]: 1.69 µM
40 | CCCCc1ccc(CC(=O)NCc2ccc(Cn3cccn3)cc2)cc1 | 8.98 | IC50 (HEPG2TOX_HILL_SLOPE 7.71, 2.15, HEPG2TOX_R_SQUARED 0.735, 0.901, PBLUC_HILL_SLOPE 15.3, 3.44, PBLUC_R_SQUARED 0.0878, 0.809, read-out: LUCIFERASE INFECTION ASSAY - IC50): 7.36 µM
41 | Cc1cc(C)cc(NC(=O)CCN2c3ccccc3Sc3ccccc32)c1 | > 10 | IC50 (FFLUC_HILL_SLOPE 15.9, FFLUC_R_SQUARED 0.234, read-out: LUCIFERASE INFECTION ASSAY - IC50): > 10 µM
